Series [1] concerns the target SULT2B1b (Homo sapiens (Human), UniProt O00204). As to the kind of experiment: Compound aggregation assay (LC-MS/MS assay with BSA decoy protein). Format: biochemical. The conditions noted are these: decoy protein BSA 0.1 mg/mL, dose response; listed as IB:10:D. Here is the method: Compound Aggregation Assay. Stock solutions of DHEA (5 mM in DMSO) and compound of interest (5 mM in DMSO) were prepared. For each 60 μL reaction, to a 1.5 mL Eppendorf tube was added 26.7 μL 1× assay buffer supplemented with 0.2 mg/mL bovine serum albumin (BSA) and 1.2 μL compound of interest or DMSO. BSA-containing 1× assay buffer and compound of interest were incubated at room temperature for 5 minutes before addition of 1.2 μL of 5 mM DHEA, and 0.9 μL 6.6 mM PAPS. SULT2B1b was diluted to 1.5 μg/μL in protein storage buffer then down to 0.8 μg/μL in 1× activity assay buffer. 30 μL of 0.8 μg/μL SULT2B1b was added to each reaction. Reactions were incubated for 2 hours at 37° C. with shaking at 250 rpm. To quench, 30 μL reaction mix was added to 30 μL ice cold 0.5% HCl in MeCN, then centrifuged at 13,000 xg at room temperature for 3 min. 50 μL supernatant was transferred to an empty Eppendorf tube and submitted for LC-MS/MS quantification (UIUC Metabolomics Center). For samples run without BSA, an identical protocol was followed using 26.7 μL 1× assay buffer that had not been supplemented with BSA. Controls: Reaction mix made with DHEA, DMSO in place of compound of interest (DHEA control).
Percent inhibition was calculated as: 100−[100×(DHEA-sulfate producedcompound of interest/DHEA sulfate producedDHEA)].

The nature of series [2]: Pharmacokinetic mouse studies. Format: in vivo, C57BL/6 mice. The conditions noted are these: for concentration in the serum: mice. The protocol:
Pharmacokinetic Analysis. […] Whole blood was collected, centrifuged, and EDTA serum separated for quantification by […] methods (UIUC Metabolomics Center, Urbana, IL).
Pharmacokinetic mouse studies: Compound (3) was formulated in 50% DMSO, 50% Peg400 at 40 mg/mL (for 200 mg/kg injection), Compound was injected intraperitoneally into female C57BL/6 mice (3 per time point). Blood from the mice were harvested at each time point. Serum was separated and concentration in the serum was quantified by LC-MS/MS.

For series [3], the system named is STS and SULT2B1b levels in MCF-7. In words: Western blot of STS and SULT2B1b after treatment, MCF-7. It is filed as cell-based, human. The conditions noted are these: MCF-7, 6.25 μM, 72 hours. Here is the method:
Western Blot Analysis. Cells were lysed using RIPA buffer containing phosphatase (BioVision) and protease inhibitor cocktail (Calbiochem). Protein concentrations were determined using the BCA assay (Pierce). Lysates containing 15 μg of protein were loaded onto 4-20% gradient gels (BioRad), and SDS-PAGE was run. Proteins were then transferred onto membrane (PVDF Millipore) for Western Blot analysis. Blots were blocked with BSA solution (2 g in 40 mL TBST) for one hour followed by primary antibody addition and incubation overnight (using manufacturer's recommended dilutions). Following overnight incubation, blots were washed with TBST, and incubated with HRP-linked secondary antibody for 1 hour in TBST. Blots were washed, then imaged with ChemiDoc after incubation with SuperSignal West Pico Solution following manufacturer's procedures.
(In general: In western blotting, separated proteins are transferred to a membrane and probed.)

For series [4] the following is noted: in vivo, ip. Here is the method:
Tolerability Studies. Three female C57/BL6 mice were administered single IP doses (formulated in 50% DMSO/50% Peg400) of compound (2). Compound was formulated at a concentration of 20-40 mg/mL depending on dose. Mice were injected with 100 μL formulated compound. Mouse weight and lethality were tracked as indicators of compound tolerability. Tolerability of vehicle had been previously assessed.
Maximum tolerated dose mouse studies: Compound (3) was formulated in 50% DMSO, 50% Peg400 at 20 mg/mL (for 100 mg/kg injection), 25 mg/mL (for 125 mg/kg injection), or 40 mg/mL (for 200 mg/kg injection). Compound was injected intraperitoneally into female C57BL/6 mice, and the mice were monitored for signs of toxicity.

Where [5] appears, read: female, mouse, 200 mg/kg, C57BL/6 mice, single IP dose, serum.

Each structure is given as a SMILES string. Entries after “also recorded” stand apart in the source; their conditions may differ.

Sequence of SULT2B1b (O00204 whole entry): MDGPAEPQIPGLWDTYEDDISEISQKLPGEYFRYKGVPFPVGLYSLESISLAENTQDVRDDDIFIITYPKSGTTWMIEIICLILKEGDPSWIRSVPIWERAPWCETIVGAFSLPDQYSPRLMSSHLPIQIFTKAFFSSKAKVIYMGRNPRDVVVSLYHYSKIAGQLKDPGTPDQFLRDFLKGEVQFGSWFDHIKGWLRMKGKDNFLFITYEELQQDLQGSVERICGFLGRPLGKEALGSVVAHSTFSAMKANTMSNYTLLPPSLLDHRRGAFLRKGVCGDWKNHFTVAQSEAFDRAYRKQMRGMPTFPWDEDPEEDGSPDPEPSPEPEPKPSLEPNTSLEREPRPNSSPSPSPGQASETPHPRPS

On to `C[C@]12CCC(=O)N(Cc3ccc(Cl)cc3)C1=CC[C@@H]1[C@@H]2C(=O)C[C@]2(C)C(=O)CC[C@@H]12` [Compound 1, (4aR,4bS,6aS,9aS,9bS)-1-(4-chlorobenzyl)-4a,6a-dimethyl-3,4,4a,6,6a,8,9,9a,9b,10-decahydro-1H-indeno[5,4-f]quinoline-2,5,7(4bH)-trione], for which the “shift in SULT2B1b inhibition in the presence of BSA” value in series [1] was “minimal shift; also recorded: no change”.
A word on the AUC: it is the area under the concentration-time curve, a measure of exposure. In general, Cmax refers to the maximum level reached in the sampled fluid or tissue. Broadly, the MRT is the average time that molecules of a dose stay in the body. As usually defined, the half-life is how long it takes for the measured level to halve. Read a high half-life as slow loss. Consider `C[C@]12CCC(=O)N(Cc3ccc(Br)cc3)C1=CC[C@@H]1[C@@H]2C(=O)C[C@]2(C)C(=O)CC[C@@H]12` [Compound 3, (4aR,4bS,6aS,9aS,9bS)-1-(4-bromobenzyl)-4a,6a-dimethyl-3,4,4a,6,6a,8,9,9a,9b,10-decahydro-1H-indeno[5,4-f]quinoline-2,5,7(4bH)-trione], for which the CL in series [2] (C57BL/6 mice, single IP dose, serum) is recorded as 90.56 mL/min/kg. For the same compound, in series [2] (setting [5]), the AUC is 36800 ng·h/mL, the Cmax was found to be 19800 ng/mL, the MRT was 1.86 h and the half-life was 77.2 min. In addition, the “concentration in the serum” value in series [2] (200 mg/kg intraperitoneally) was about 50 µM. The “concentration in the serum” value in series [2] (stated as 150 mg/kg IP) is about 50 µM. In addition, the “STS and SULT2B1b levels after treatment” value in series [3] was “unchanged”. Further, the tolerated dose entry in series [4] (female, C57BL/6, mouse) was “up to 200 mg/kg”. Besides, the tolerability entry in series [4] (mouse, 200 mg/kg) is listed as “not tolerated”.

The values are drawn from patent US20240400606A1, “SMALL MOLECULE ACTIVATORS OF THE IMMUNE SYSTEM” (THE BOARD OF TRUSTEES OF THE UNIVERSITY OF ILLINOIS, priority 2021, published 2024).
